Laboratory results reported in publication PMC11466185, “Mechanisms and efficacy of small molecule latency-promoting agents to inhibit HIV reactivation ex vivo” (JCI Insight, 2024).

Test system: HIV transcripts (TAR, LLTR, Pol, PolyA, TatRev)
Assay: Cell-associated HIV transcripts (RT-ddPCR) 6 days after anti-CD3/CD28 activation of PBMCs from ART-suppressed PWH
Format: cell-based
Details: DMSO+CD3/28 = 1, Fig 4B, C and D
Protocol: Next, we evaluated the ability of the candidate LPAs to sustain the inhibitory effects during a prolonged ex vivo culture. To this end, PBMCs were cultured in the presence of individual drugs in DMSO or in DMSO alone as control, activated (anti-CD3/CD28), and harvested after 6 days. […] However, we decided to test the drug on day 6 because extra cells were available from some study participants.
Each drug was tested in PBMCs from at least 6 ART-suppressed study participants (except for KRIBB11, n = 5). PBMCs were aliquoted into wells at 6 × 10^6 cells/well. After activation, the cells were cultured with antiretrovirals in the presence of individual drugs in DMSO or DMSO alone as control. All conditions were tested in the presence of CD3/28 T cell–activating beads, except for the unactivated DMSO condition. After 6 days, total cellular RNA was extracted, and the progression through different stages of HIV transcription was quantified by measuring the levels of initiated (TAR), 5′ elongated (LLTR), midtranscribed/unspliced (Pol), completed (PolyA), and multiply spliced (TatRev) HIV transcripts. (A) The levels of all HIV transcripts were normalized to 1 μg of total cellular RNA and expressed as a percentage of the activated DMSO control (% of activated DMSO). Medians are shown as well as the individual values per study participant in different colors. (B–D) The effect of each drug on HIV transcriptional progression after activation was analyzed by the ratio of one HIV transcript to another. Ratios are independent of HIV infection frequency or normalization to cell numbers. Shown are the proportion of (B) all HIV transcripts that are elongated (LLTR/TAR), (C) elongated HIV transcripts that are completed (PolyA/LLTR), and (D) completed transcripts that are multiply spliced (TatRev/PolyA). Medians and IQR are presented, along with the individual values per study participant in different colors. P values were calculated using Wilcoxon’s signed-rank test: *P < 0.05.
PBMCs were isolated from fresh venous blood from 16 ART-suppressed HIV-infected study participants using Ficoll density gradient centrifugation. The cells were seeded at 6 × 10^6 cells/well and cultured with antiretrovirals (nevirapine and indinavir) to prevent new infection. On the next day, PBMCs were activated with anti-CD3/CD28–coated beads (Invitrogen) in the presence of 20 U/mL IL-2 and individual drugs in DMSO or DMSO alone as a control. Since we were limited in the PBMC yield per study participant, different study participants were used for different experiments (such as the initial screen, dose response, different time points, and studies in activated vs. unstimulated cells). In addition, the yields of PBMCs were sometimes insufficient to test all drugs for a given question or experiment.
For quantification of cell-associated HIV transcripts, PBMCs were harvested either after 24 hours or after 6 days. The cell viabilities were measured by trypan blue staining; then the cells were pelleted by centrifuging at 300g for 6 minutes and stored at –80°C. For quantification of virion-associated HIV RNA, cell culture supernatant was collected from 6 × 10^6 PBMCs that were treated and activated for 6 days as described above. Residual cells and cellular debris were subsequently removed from the supernatant by differential centrifugation (300g for 6 minutes, then 20,000g for 10 minutes), and the supernatant was stored at –80°C.
Total cellular DNA and RNA were extracted in parallel using Trireagent (Molecular Research Center) according to the manufacturer’s instructions, except for study participants 2147 and 2461 (Figure 4), for whom DNA and RNA were extracted using the QIAGEN AllPrep DNA/RNA/miRNA Universal Kit with on-column DNase I treatment of the RNA and the manufacturer’s modification to enhance recovery of short transcripts.

| Structure (SMILES) | LLTR/TAR (participant 150b) | PolyA/LLTR (participant 150b) | TatRev/PolyA (participant 150b) | LLTR/TAR (participant 2027) | PolyA/LLTR (participant 2027) | TatRev/PolyA (participant 2027) | LLTR/TAR (participant 2147a) | PolyA/LLTR (participant 2147a) | TatRev/PolyA (participant 2147a) | PolyA/LLTR (participant 2161) | TatRev/PolyA (participant 2161) | LLTR/TAR (participant 2256) | PolyA/LLTR (participant 2256) | LLTR/TAR (participant 2461) | LLTR/TAR (participant 1379) | PolyA/LLTR (participant 1379) | LLTR/TAR (participant 2147b) | LLTR/TAR (participant 2750) | PolyA/LLTR (participant 2750) | TatRev/PolyA (participant 2750) | also measured |
| --- | --- | --- | --- | --- | --- | --- | --- | --- | --- | --- | --- | --- | --- | --- | --- | --- | --- | --- | --- | --- | --- |
| O=c1c(O)c(-c2ccc(O)c(O)c2)oc2cc(O)cc(O)c12 [quercetin] | 0.7842 | 1.289 | 0.75 | 0.9301 | 0.981 | 0.6894 | 0.08494 | 0.5196 | 0.8518 | 0.79 | 0.8634 | 0.9386 | 0.8949 | 1.332 | – | – | – | – | – | – | TatRev/PolyA (participant 2747): 0 |
| C=CCNC1=C2C[C@@H](C)C[C@H](OC)[C@H](O)[C@@H](C)/C=C(\C)[C@H](OC(N)=O)[C@@H](OC)/C=C\C=C(/C)C(=O)NC(=CC1=O)C2=O [tanespimycin] | 1.555 | 0.0721 | 1.52 | – | – | – | – | – | – | – | – | 1.634 | 0.2174 | – | 1.931 | 0 | 1.469 | 1.458 | 1.811 | 0 | LLTR/TAR (participant 1713): 0.63; PolyA/LLTR (participant 1713): 0.35; PolyA/LLTR (participant 2147b): 0; TatRev/PolyA (participant 2256): 3.43; LLTR/TAR (participant 5557): 1.09; PolyA/LLTR (participant 5557): 0.1459; TatRev/PolyA (participant 5557): 0 |
| CC(C)[C@]12O[C@H]1[C@@H]1O[C@]13[C@]1(O[C@H]1C[C@H]1C4=C(CC[C@@]13C)C(=O)OC4)[C@@H]2O [triptolide] | 0.3514 | – | – | – | – | – | – | – | – | – | – | – | – | – | – | – | 1.135 | 14.8232 | – | – | – |
| COc1ccc(-c2cc(=O)c3c(O)cc(O)c(-c4cc(-c5cc(=O)c6c(O)cc(O)cc6o5)ccc4OC)c3o2)cc1 [isoginkgetin] | 0.8798 | 1.092 | 1.01 | 0.7253 | 0.8811 | – | 0.06726 | 1.437 | 0.8892 | 0.57 | – | 1.751 | 0.07578 | 1.166 | 1.373 | 0.4663 | – | – | – | – | LLTR/TAR (participant 2161): 0.6564; PolyA/LLTR (participant 2461): 0.2875; LLTR/TAR (participant 2747): 0; LLTR/TAR (participant 5557): 0.8133; PolyA/LLTR (participant 5557): 0.9591; TatRev/PolyA (participant 5557): 0.5795 |
| CCc1cnn2c(NCc3ccc[n+]([O-])c3)cc(N3CCCC[C@H]3CCO)nc12 [dinaciclib] | 0.1874 | 1.735 | 1.49 | 0.2578 | 0.8564 | 0.1946 | 2.005 | 0.4014 | 0.7191 | 1.48 | 1.061 | – | – | 2.038 | – | – | – | 1.778 | 2.886 | 0.2646 | LLTR/TAR (participant 2161): 1.155; PolyA/LLTR (participant 2461): 3.944 |
